Results on four compounds are retold here after patent US4698352A, “4-oxo-1,4-dihydronicotinic acid derivatives, salts thereof, and antibacterial agents containing the same” (Toyama Chemical Co., Ltd., priority 1982, dated 1987).

Converted amounts (≈) assume the structure as drawn. Read-outs that look alike come from different tables or passages of the source.

Assay in all cases: Antibacterial activity (MIC), agar dilution
Holding throughout (assay type): cell-based
On the technique in general: Agar dilution tests growth on a series of plates holding different concentrations.

In one assay the test system is Aci. antitratus A-6. The conditions noted are these: 20 h, Aci. antitratus A-6; 10^6 cells per ml; 37° C., 20 hours; read-out: MIC. The text has this: (§1) The amount of bacteria inoculated was 10^4 cells per plate (10^6 cells per ml).
A further assay concerns E. coli NIHJ JC-2. The conditions noted are these: Escherichia coli, NIHJJC2, 20 h, E. coli NIHJ JC-2; 10^6 cells per ml; 37° C., 20 hours; read-out: MIC.
Description: as §1

For the next assay, the system named is E. coli TK-111. The conditions noted are these: Escherichia coli, TK111, 20 h, E. coli TK-111; 10^6 cells per ml; 37° C., 20 hours; read-out: MIC.
Description: as §1

The next assay concerns Ent. cloacae IID977. The conditions noted are these: Enterobacter cloacae, IID977, 20 h.
Description: as §1

Another assay deals with Kl. pneumoniae Y-41. The note with it: Klebsiella pneumoniae, Y41, 10^6 cells per ml, 37° C., 20 hours, read-out: MIC.
Description: as §1

The test system of another assay is Kl. pneumoniae Y-50. The conditions noted are these: Klebsiella pneumoniae, Y50, 20 h, 10^6 cells per ml, 37° C., read-out: MIC.
Description: as §1

For the next assay, the system named is Pro. mirabilis T-111. The conditions noted are these: Proteus mirabilis, T111, 20 h, 10^6 cells per ml, 37° C.
Description: as §1

The test system of another assay is Pro. morganii T-216. The note with it: Morganella morganii, T216, 20 h, 10^6 cells per ml, 37° C.
Description: as §1

The next assay has as its system Pro. vulgaris GN3027. The note with it: Proteus vulgaris, GN3027, 20 h, Pro. vulgaris GN3027; 10^6 cells per ml; 37° C., 20 hours; read-out: MIC.
Description: as §1

The next assay relates to Ps. aeruginosa IFO3445. The conditions noted are these: Pseudomonas aeruginosa.
Description: as §1

For a further assay, the system named is Ps. aeruginosa S-68. The conditions noted are these: Pseudomonas aeruginosa.
Description: as §1

The subject of the next assay is St. aureus FDA209P. The note with it: Staphylococcus aureus, FDA209P, 20 h, St. aureus FDA209P; 10^6 cells per ml; 37° C., 20 hours; read-out: MIC.
Description: as §1

A further assay concerns E. coli TK-3*. The conditions noted are these: Escherichia coli, 20 h.
Description: as §1
(§2) * Penicillinase-producing bacteria

A further assay relates to Kl. pneumoniae Y-4*. The note with it: Klebsiella pneumoniae, 20 h, Kl. pneumoniae Y-4, penicillinase-producing; 10^6 cells per ml; read-out: MIC.
Description: as §1, §2

The next assay concerns Ps. aeruginosa GN3379*. The note with it: Pseudomonas aeruginosa, Ps. aeruginosa GN3379, penicillinase-producing, 10^6 cells per ml.
Description: as §1, §2

The next assay concerns St. aureus F-137*. The conditions noted are these: Staphylococcus aureus, 20 h, St. aureus F-137, penicillinase-producing; 10^6 cells per ml; read-out: MIC.
Description: as §1, §2

For a further assay, the system named is E. coli GN5482**. The conditions noted are these: Escherichia coli, 20 h; E. coli GN5482, cephalospolinase-producing; 10^6 cells per ml; read-out: MIC.
Description: as §1
(§3) ** Cephalospolinase-producing bacteria

A further assay has as its system Pro. vulgaris GN76**. The conditions noted are these: Proteus vulgaris.
Description: as §1, §3

A further assay concerns Ps. aeruginosa GN918**. The conditions noted are these: Pseudomonas aeruginosa, Ps. aeruginosa GN918, cephalospolinase-producing, 10^6 cells per ml.
Description: as §1, §3

The mark [1] stands for this setting: Ent. cloacae IID977, 10^6 cells per ml, 37° C., 20 hours, read-out: MIC.
Where [2] appears, read: Ps. aeruginosa IFO3445, 10^6 cells per ml, 37° C., 20 hours, read-out: MIC.
[3] abbreviates: E. coli TK-3, penicillinase-producing, 10^6 cells per ml, read-out: MIC.
[4] abbreviates: 20 h, Pro. vulgaris GN76, cephalospolinase-producing, 10^6 cells per ml, read-out: MIC.

`O=C(O)c1cn(-c2ccc(O)cc2)c(-c2ccc(N3CCCC3)cc2)cc1=O`: the MIC (in general, the smallest concentration in the dilution series that meets the test's criterion for growth inhibition) in the assay on Aci. antitratus A-6 was ≤ 0.05 µg/mL; in the assay with E. coli NIHJ JC-2, 0.39 µg/mL (≈ 1.04 µM); in the assay with E. coli TK-111 it was 0.2 µg/mL (≈ 0.531 µM); with Ent. cloacae IID977 (setting [1]), 0.78 µg/mL (≈ 2.07 µM); with Kl. pneumoniae Y-41 it was 1.56 µg/mL (≈ 4.14 µM); with Kl. pneumoniae Y-50, 0.78 µg/mL (≈ 2.07 µM). Also, the minimum inhibitory concentration (MIC) with Pro. mirabilis T-111 was found to be 1.56 µg/mL (≈ 4.14 µM); in the assay on Pro. morganii T-216, 1.56 µg/mL (≈ 4.14 µM); in the assay with Pro. vulgaris GN3027, 0.2 µg/mL (≈ 0.531 µM); with Ps. aeruginosa IFO3445 (setting [2]) it was 6.25 µg/mL (≈ 16.6 µM); with Ps. aeruginosa S-68 (S68, 20 h), 3.13 µg/mL (≈ 8.32 µM); in the assay on St. aureus FDA209P, 0.2 µg/mL (≈ 0.531 µM). Also, the MIC in the assay on E. coli TK-3* (setting [3]) is 0.78 µg/mL (≈ 2.07 µM); in the assay with Kl. pneumoniae Y-4* it was 3.13 µg/mL (≈ 8.32 µM); with Ps. aeruginosa GN3379* (GN3379, 20 h), 3.13 µg/mL (≈ 8.32 µM); in the assay with St. aureus F-137* it was 0.1 µg/mL (≈ 0.266 µM); in the assay on E. coli GN5482** it was ≤ 0.05 µg/mL; in the assay with Pro. vulgaris GN76** (setting [4]), 0.78 µg/mL (≈ 2.07 µM). Moreover, in the assay on Ps. aeruginosa GN918** (GN918, 20 h), the MIC amounted to 1.56 µg/mL (≈ 4.14 µM).

On to `Cc1nc(-c2ccc(-c3cc(=O)c(C(=O)O)cn3-c3ccc(F)cc3)cc2)cs1`, for which the MIC is 0.1 µg/mL (≈ 0.246 µM) with Aci. antitratus A-6; 1.56 µg/mL (≈ 3.84 µM) in the assay on E. coli NIHJ JC-2; 0.39 µg/mL (≈ 0.96 µM) in the assay on E. coli TK-111; 6.25 µg/mL (≈ 15.4 µM) against Ent. cloacae IID977; 6.25 µg/mL (≈ 15.4 µM) in the assay on Kl. pneumoniae Y-41; 3.13 µg/mL (≈ 7.7 µM) in the assay on Kl. pneumoniae Y-50. Further, the minimal inhibitory concentration (MIC) against Pro. mirabilis T-111 amounted to 6.25 µg/mL (≈ 15.4 µM); in the assay with Pro. morganii T-216 it was 3.13 µg/mL (≈ 7.7 µM); in the assay with Pro. vulgaris GN3027 it was 1.56 µg/mL (≈ 3.84 µM); in the assay on Ps. aeruginosa IFO3445 (setting [2]) it was 25 µg/mL (≈ 61.5 µM); in the assay with Ps. aeruginosa S-68 (S68, Ps. aeruginosa S-68, 10^6 cells per ml, 37° C., 20 hours, read-out: MIC), 12.5 µg/mL (≈ 30.8 µM); in the assay with St. aureus FDA209P, 0.2 µg/mL (≈ 0.492 µM). Also, the minimal inhibitory concentration (MIC) was determined as 3.13 µg/mL (≈ 7.7 µM) in the assay on E. coli TK-3*; 25 µg/mL (≈ 61.5 µM) in the assay on Kl. pneumoniae Y-4*; 25 µg/mL (≈ 61.5 µM) in the assay on Ps. aeruginosa GN3379* (20 h, read-out: MIC); 0.2 µg/mL (≈ 0.492 µM) in the assay with St. aureus F-137*; 0.78 µg/mL (≈ 1.92 µM) in the assay on E. coli GN5482**; 3.13 µg/mL (≈ 7.7 µM) in the assay with Pro. vulgaris GN76** (GN76, 20 h). This compound showed an MIC against Ps. aeruginosa GN918** (GN918, 20 h) of 3.13 µg/mL (≈ 7.7 µM).

For `Cc1nc(-c2ccc(-c3cc(=O)c(C(=O)O)cn3-c3ccc(O)cc3C)cc2)co1`, the minimum inhibitory concentration (MIC) with Aci. antitratus A-6 was 0.39 µg/mL (≈ 0.969 µM); with E. coli NIHJ JC-2, 0.1 µg/mL (≈ 0.249 µM); with E. coli TK-111, ≤ 0.05 µg/mL; in the assay with Ent. cloacae IID977 (setting [1]), 0.39 µg/mL (≈ 0.969 µM); in the assay on Kl. pneumoniae Y-41, 1.56 µg/mL (≈ 3.88 µM); in the assay on Kl. pneumoniae Y-50, 0.2 µg/mL (≈ 0.497 µM). Further, the MIC in the assay on Pro. mirabilis T-111 came to 1.56 µg/mL (≈ 3.88 µM); with Pro. morganii T-216, 3.13 µg/mL (≈ 7.78 µM); with Pro. vulgaris GN3027, 0.39 µg/mL (≈ 0.969 µM); against Ps. aeruginosa IFO3445 (IFO3445, 20 h), 3.13 µg/mL (≈ 7.78 µM); against Ps. aeruginosa S-68 (S68, 20 h), 3.13 µg/mL (≈ 7.78 µM); with St. aureus FDA209P it was 0.1 µg/mL (≈ 0.249 µM). The MIC in the assay on E. coli TK-3* (setting [3]) was 0.2 µg/mL (≈ 0.497 µM); in the assay with Kl. pneumoniae Y-4*, 3.13 µg/mL (≈ 7.78 µM); with Ps. aeruginosa GN3379* (20 h, read-out: MIC), 6.25 µg/mL (≈ 15.5 µM); with St. aureus F-137*, 0.1 µg/mL (≈ 0.249 µM); with E. coli GN5482**, ≤ 0.05 µg/mL; with Pro. vulgaris GN76** (setting [4]) it was 0.78 µg/mL (≈ 1.94 µM). Besides, the minimum inhibitory concentration (MIC) with Ps. aeruginosa GN918** (20 h, read-out: MIC) turned out to be 0.78 µg/mL (≈ 1.94 µM).

Turning to `Cc1nc(-c2ccc(-c3cc(=O)c(C(=O)O)cn3-c3ccc(F)cc3)cc2)co1`, the MIC is 0.2 µg/mL (≈ 0.512 µM) with Aci. antitratus A-6; 0.78 µg/mL (≈ 2 µM) in the assay on E. coli NIHJ JC-2; 0.39 µg/mL (≈ 0.999 µM) with E. coli TK-111; 3.13 µg/mL (≈ 8.02 µM) in the assay on Ent. cloacae IID977 (setting [1]); 6.25 µg/mL (≈ 16 µM) in the assay with Kl. pneumoniae Y-41; 1.56 µg/mL (≈ 4 µM) in the assay with Kl. pneumoniae Y-50. Moreover, the MIC in the assay with Pro. mirabilis T-111 was determined as 6.25 µg/mL (≈ 16 µM); against Pro. morganii T-216, 6.25 µg/mL (≈ 16 µM); with Pro. vulgaris GN3027, 0.39 µg/mL (≈ 0.999 µM); in the assay on Ps. aeruginosa IFO3445 (setting [2]), 25 µg/mL (≈ 64 µM); in the assay on Ps. aeruginosa S-68 (S68, 20 h), 12.5 µg/mL (≈ 32 µM); in the assay on St. aureus FDA209P, 0.39 µg/mL (≈ 0.999 µM). For the same compound, the MIC was found to be 3.13 µg/mL (≈ 8.02 µM) in the assay on E. coli TK-3* (setting [3]); 12.5 µg/mL (≈ 32 µM) with Kl. pneumoniae Y-4*; 25 µg/mL (≈ 64 µM) in the assay on Ps. aeruginosa GN3379* (20 h, read-out: MIC); 0.39 µg/mL (≈ 0.999 µM) with St. aureus F-137*; 0.2 µg/mL (≈ 0.512 µM) with E. coli GN5482**; 3.13 µg/mL (≈ 8.02 µM) in the assay with Pro. vulgaris GN76** (setting [4]). Also, the minimal inhibitory concentration (MIC) in the assay on Ps. aeruginosa GN918** (20 h, read-out: MIC) was determined as 3.13 µg/mL (≈ 8.02 µM).
